One assay addresses T1, NS5B 1b (Hepatitis C virus genotype 1b, UniProt P26663).
T1 construct: a region encoding NS5B (J Virol 1991 March, 65(3), 1105-13, 544 amino acids after deletion of 47 amino acids on the C-terminal); 6 His (C); made in house; host or cells: Escherichia coli
The experiment in a line: Assay of enzyme (HCV polymerase) inhibitory activity, NS5B 1b. The assay is classed as biochemical. The source says:
The evaluation of the HCV polymerase inhibitory activity of the compound of the present invention is explained in the following. This polymerase is an enzyme coded for by the non-structural protein region called NS5B on the genome RNA of HCV (EMBO J., 15:12-22, 1996).
i) Preparation of enzyme (HCV polymerase)
Using, as a template, a cDNA clone corresponding to the full length genome RNA of HCV BK strain obtained from the blood of a patient with hepatitis C, a region encoding NS5B (J Virol 1991 March, 65(3), 1105-13, 544 amino acids after deletion of 47 amino acids on the C-terminal) was amplified by PCR. The objective gene was prepared by adding a 6 His tag {base pair encoding 6 continuous histidine (His)} to the 3′ end thereof and transformed to Escherichia coli. The Escherichia coli capable of producing the objective protein was cultured. The obtained cells were suspended in a buffer solution and crushed in a microfluidizer. The supernatant was obtained by centrifugation and applied to various column chromatographys {mono-S, Sephacryl S-200 (Pharmacia)}, inclusive of metal chelate chromatography, to give a standard enzyme product.
ii) Synthesis of Substrate RNA
Using a synthetic primer designed based on the sequence of HCV genomic 3′ untranslated region, a DNA fragment (148 bp) containing polyU and 3′X sequence was entirely synthesized and cloned into plasmid pBluescript SK II(+) (Stratagene). The cDNA encoding full length NS5B, which was prepared in i) above, was digested with restriction enzyme KpnI to give a cDNA fragment containing the nucleotide sequence of from the restriction enzyme cleavage site to the termination codon. This cDNA fragment was inserted into the upstream of 3′ untranslated region of the DNA in pBluescript SK II(+) and ligated. The about 450 bp inserted DNA sequence was used as a template in the preparation of substrate RNA. This plasmid was cleaved immediately after the 3′X sequence, linearized and purified by phenol-chloroform treatment and ethanol precipitation to give DNA.
RNA was synthesized (37° C., 3 hr) by run-off method using this purified DNA as a template, a promoter of pBluescript SK II(+), MEGAscript RNA synthesis kit (Ambion) and T7 RNA polymerase. DNase I was added and the mixture was incubated for 1 hr. The template DNA was removed by decomposition to give a crude RNA product. This crude product was treated with phenol-chloroform and purified by ethanol precipitation to give the objective substrate RNA.
This RNA was applied to formaldehyde denaturation agarose gel electrophoresis to confirm the quality thereof and preserved at −80° C. iii) Assay of enzyme (HCV polymerase) inhibitory activity A test substance (compound of the present invention) and a reaction mixture (30 μl) having the following composition were reacted at 25° C. for 90 min.
10% Trichloroacetic acid at 4° C. and 1% sodium pyrophosphate solution (150 μl) were added to this reaction mixture to stop the reaction. The reaction mixture was left standing in ice for 15 min to insolubilize RNA. This RNA was trapped on a glass filter (Whatman GF/C and the like) upon filtration by suction. This filter was washed with a solution containing 1% trichloroacetic acid and 0.1% sodium pyrophosphate, washed with 90% ethanol and dried. A liquid scintillation cocktail (Packard) was added and the radioactivity of RNA synthesized by the enzyme reaction was measured on a liquid scintillation counter.
The HCV polymerase inhibitory activity (IC50) of the compound of the present invention was calculated from the values of radioactivity of the enzyme reaction with and without the 20 test substance. […]

The target in a further assay is T2, NS5B 1a (Hepatitis C virus genotype 1a, UniProt P27958).
T2 construct: NS5B 1a
Put plainly: Assay of enzyme (HCV polymerase) inhibitory activity, NS5B 1a. The assay is classed as biochemical. The conditions noted are these: HCV polymerase NS5B 1a; [3H]UTP incorporation, 25° C., 90 min.

Each structure is given as a SMILES string. Counter-ions that a name gives are not always drawn. Where only a bound is given, the exact number is not on record here.

T2 sequence (P27958 2421-3011): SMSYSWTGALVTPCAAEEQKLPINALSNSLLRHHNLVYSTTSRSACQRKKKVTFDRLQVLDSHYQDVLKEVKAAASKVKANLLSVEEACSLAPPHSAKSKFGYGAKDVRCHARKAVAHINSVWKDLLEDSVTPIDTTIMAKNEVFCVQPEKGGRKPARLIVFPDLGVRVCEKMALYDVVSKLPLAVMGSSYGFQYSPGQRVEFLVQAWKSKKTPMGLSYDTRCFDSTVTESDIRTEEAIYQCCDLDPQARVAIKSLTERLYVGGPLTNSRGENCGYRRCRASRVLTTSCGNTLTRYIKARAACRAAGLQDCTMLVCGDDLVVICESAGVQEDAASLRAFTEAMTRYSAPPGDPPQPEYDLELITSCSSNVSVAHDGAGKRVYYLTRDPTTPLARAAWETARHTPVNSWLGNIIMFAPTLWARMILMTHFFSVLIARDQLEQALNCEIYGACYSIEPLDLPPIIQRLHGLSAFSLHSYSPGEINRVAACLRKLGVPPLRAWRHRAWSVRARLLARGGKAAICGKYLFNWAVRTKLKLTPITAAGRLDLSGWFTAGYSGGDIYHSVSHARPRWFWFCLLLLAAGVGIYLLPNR
T1 sequence (P26663 2420-2963): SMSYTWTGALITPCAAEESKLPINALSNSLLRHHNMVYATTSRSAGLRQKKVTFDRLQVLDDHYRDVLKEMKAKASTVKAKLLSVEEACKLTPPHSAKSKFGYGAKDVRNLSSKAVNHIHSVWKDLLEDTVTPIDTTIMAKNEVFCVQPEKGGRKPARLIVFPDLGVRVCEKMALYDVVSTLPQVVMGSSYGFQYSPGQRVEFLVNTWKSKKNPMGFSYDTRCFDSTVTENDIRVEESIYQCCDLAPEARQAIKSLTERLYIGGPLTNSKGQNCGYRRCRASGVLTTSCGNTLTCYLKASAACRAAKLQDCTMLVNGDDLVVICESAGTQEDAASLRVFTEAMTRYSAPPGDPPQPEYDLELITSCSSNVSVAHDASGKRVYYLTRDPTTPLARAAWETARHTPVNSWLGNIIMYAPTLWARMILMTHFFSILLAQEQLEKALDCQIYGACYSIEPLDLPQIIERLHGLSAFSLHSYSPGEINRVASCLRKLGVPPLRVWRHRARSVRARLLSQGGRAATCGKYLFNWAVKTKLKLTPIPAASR

For orientation: IC50 means the concentration needed to halve the response being measured. On to `CCOc1ccc2c(c1)N(C)CCn1c-2c(C2CCCCC2)c2sc(C(=O)NC3(C(=O)Nc4ccc(/C=C/C(=O)O)cc4)CCC3)cc21` [Example 45, (E)-3-[4-({1-[(11-cyclohexyl-8-ethoxy-6-methyl-5,6-dihydro-4H-1-thia-3b,6-diazabenzo[e]cyclopenta[a]azulene-2-carbonyl)amino]cyclobutanecarbonyl}amino)phenyl]acrylic acid], for which the IC50 against NS5B 1b and on NS5B 1a was 10 to 100 nM in each case.
On to `Cc1ccc2c(c1)N(CCN1CCCOCC1)CCn1c-2c(C2CCCCC2)c2sc(C(=O)O)cc21` [Example 28, 11-cyclohexyl-8-methyl-6-[2-(1,4-oxazepan-4-yl)ethyl]-5,6-dihydro-4H-1-thia-3b,6-diazabenzo[e]cyclopenta[a]azulene-2-carboxylic acid dihydrochloride], for which the concentration for half-maximal inhibition (IC50) at NS5B 1b and at NS5B 1a was 10 to 100 nM throughout.
`O=C(O)c1cc2c(s1)c(C1CCCCC1)c1n2CCN(CCN2CCCCC2)c2ccccc2-1` [Example 8, 11-cyclohexyl-6-[2-(piperidin-1-yl)ethyl]-5,6-dihydro-4H-1-thia-3b,6-diazabenzo[e]cyclopenta[a]azulene-2-carboxylic acid dihydrochloride]: the concentration for half-maximal inhibition (IC50) on NS5B 1b and against NS5B 1a was 10 to 100 nM each time.
As to `CS(=O)(=O)N1CCN(c2ccc(N3CCCC3=O)cc2COc2ccc3c(c2)OCCn2c-3c(C3CCCCC3)c3sc(C(=O)O)cc32)CC1` [Example 18, 11-cyclohexyl-8-[2-(4-methanesulfonylpiperazin-1-yl)-5-(2-oxopyrrolidin-1-yl)benzyloxy]-4,5-dihydro-6-oxa-1-thia-3b-azabenzo[e]cyclopenta[a]azulene-2-carboxylic acid], the half-inhibitory concentration (IC50) against NS5B 1b and on NS5B 1a was under 10 nM throughout.
Consider `CN1CCn2c(c(C3CCCCC3)c3sc(C(=O)NC4(C(=O)Nc5ccc(/C=C/C(=O)O)cc5)CCC4)cc32)-c2ccc(Cl)cc21` [Example 39, (E)-3-[4-({1-[(8-chloro-11-cyclohexyl-6-methyl-5,6-dihydro-4H-1-thia-3b,6-diazabenzo[e]cyclopenta[a]azulene-2-carbonyl)amino]cyclobutanecarbonyl}amino)phenyl]acrylic acid], for which the half-inhibitory concentration (IC50) against NS5B 1b and against NS5B 1a was 10 to 100 nM throughout.
Consider `O=C(O)c1cc2c(s1)c(C1CCCCC1)c1n2CCOc2c-1cccc2N(CCN1CCCCC1)CCN1CCCCC1` [Example 42, 7-{bis[2-(piperidin-1-yl)ethyl]amino}-11-cyclohexyl-4,5-dihydro-6-oxa-1-thia-3b-azabenzo[e]cyclopenta[a]azulene-2-carboxylic acid trihydrochloride], for which the half-inhibitory concentration (IC50) against NS5B 1b is under 10 nM; against NS5B 1a it was 10 to 100 nM.
The matching figures for `Cc1ccc2c(c1)N(CCN1CCCCC1)CCn1c-2c(C2CCCCC2)c2sc(C(=O)O)cc21` [Example 19, 11-cyclohexyl-8-methyl-6-[2-(piperidin-1-yl)ethyl]-5,6-dihydro-4H-1-thia-3b,6-diazabenzo[e]cyclopenta[a]azulene-2-carboxylic acid dihydrochloride]: under 10 nM and 10 to 100 nM.
For `O=C(O)c1cc2c(s1)c(C1CCCCC1)c1n2CCN(CCN2CCCOCC2)c2ccccc2-1` [Example 24, 11-cyclohexyl-6-[2-(1,4-oxazepan-4-yl)ethyl]-5,6-dihydro-4H-1-thia-3b,6-diazabenzo[e]cyclopenta[a]azulene-2-carboxylic acid dihydrochloride], in that order: 10 to 100 nM and 10 to 100 nM.
For `COCC[C@@H]1CCCN(CCN2CCn3c(c(C4CCCCC4)c4sc(C(=O)O)cc43)-c3ccccc32)C1` [Example 23, (S)-11-cyclohexyl-6-{2-[3-(2-methoxyethyl)piperidin-1-yl]ethyl)-5,6-dihydro-4H-1-thia-3b,6-diazabenzo[e]cyclopenta[a]azulene-2-carboxylic acid dihydrochloride], in that order: 10 to 100 nM and 10 to 100 nM.
As for `CCOc1ccc2c(c1)N(C)CCn1c-2c(C2CCCCC2)c2sc(C(=O)O)cc21` [Example 44, 11-cyclohexyl-8-ethoxy-6-methyl-5,6-dihydro-4H-1-thia-3b,6-diazabenzo[e]cyclopenta[a]azulene-2-carboxylic acid], the concentration for half-maximal inhibition (IC50) against NS5B 1b and at NS5B 1a was 10 to 100 nM each time.
On to `COc1ccc2c(c1)OCCn1c-2c(C2CCCCC2)c2sc(C(=O)NC3(C(=O)Nc4cccc(/C=C/C(=O)O)c4)CCC3)cc21` [Example 40, (E)-3-[3-({1-[(11-cyclohexyl-8-methoxy-4,5-dihydro-6-oxa-1-thia-3b-azabenzo[e]cyclopenta[a]azulene-2-carbonyl)amino]cyclobutanecarbonyl}amino)phenyl]acrylic acid], for which the concentration for half-maximal inhibition (IC50) against NS5B 1b and against NS5B 1a was 10 to 100 nM in each case.
`O=C(O)c1cc2c(s1)c(C1CCCCC1)c1n2CCOc2cc(OCc3cc(N4CCCC4=O)ccc3N3CCOCC3)ccc2-1` [Example 16, 11-cyclohexyl-8-[2-(morpholin-4-yl)-5-(2-oxopyrrolidin-1-yl)benzyloxy]-4,5-dihydro-6-oxa-1-thia-3b-azabenzo[e]cyclopenta[a]azulene-2-carboxylic acid hydrochloride]: the IC50 against NS5B 1b is under 10 nM; on NS5B 1a it was 10 to 100 nM.
Regarding `CC1CCCN(CCN2CCn3c(c(C4CCCCC4)c4sc(C(=O)O)cc43)-c3ccc(Cl)cc32)C1` (stereo not shown) [Example 30, 8-chloro-11-cyclohexyl-6-[2-(3-methylpiperidin-1-yl)ethyl]-5,6-dihydro-4H-1-thia-3b,6-diazabenzo[e]cyclopenta[a]azulene-2-carboxylic acid dihydrochloride], the IC50 on NS5B 1b is under 10 nM; against NS5B 1a, 10 to 100 nM.
The matching figures for `O=C(O)c1cc2c(s1)c(C1CCCCC1)c1n2CCN(CCN2CCCCC2)c2cc(Cl)ccc2-1` [Example 20, 8-chloro-11-cyclohexyl-6-[2-(piperidin-1-yl)ethyl]-5,6-dihydro-4H-1-thia-3b,6-diazabenzo[e]cyclopenta[a]azulene-2-carboxylic acid dihydrochloride]: 10 to 100 nM and 10 to 100 nM.
For `CC1CCCN(CCN2CCn3c(c(C4CCCCC4)c4sc(C(=O)O)cc43)-c3ccccc32)C1` (stereo not shown) [Example 22, 11-cyclohexyl-6-[2-(3-methylpiperidin-1-yl)ethyl]-5,6-dihydro-4H-1-thia-3b,6-diazabenzo[e]cyclopenta[a]azulene-2-carboxylic acid dihydrochloride], in that order: 10 to 100 nM and 10 to 100 nM.
As for `COCC[C@@H]1CCCN(CCN2CCn3c(c(C4CCCCC4)c4sc(C(=O)O)cc43)-c3ccc(Cl)cc32)C1` [Example 31, (S)-8-chloro-11-cyclohexyl-6-{2-[3-(2-methoxyethyl)piperidin-1-yl]ethyl}-5,6-dihydro-4H-1-thia-3b,6-diazabenzo[e]cyclopenta[a]azulene-2-carboxylic acid dihydrochloride], the half-inhibitory concentration (IC50) is under 10 nM against NS5B 1b and 10 to 100 nM against NS5B 1a.
For `CS(=O)(=O)c1ccc(N2CCOCC2)c(COc2ccc3c(c2)OCCn2c-3c(C3CCCCC3)c3sc(C(=O)O)cc32)c1` [Example 3, 11-cyclohexyl-8-[5-methanesulfonyl-2-(morpholin-4-yl)benzyloxy]-4,5-dihydro-6-oxa-1-thia-3b-azabenzo[e]cyclopenta[a]azulene-2-carboxylic acid], in that order: under 10 nM and 10 to 100 nM.

The values are drawn from patent US7659263B2, “Thienopyrrole compound and use thereof as HCV polymerase inhibitor” (Japan Tobacco Inc., priority 2004, dated 2010).
